The record followed here is patent US11273161B2, “Methods of treating autism spectrum disorders” (The Broad Institute, Inc., priority 2016, dated 2022).

For assay [1], the target named is T1, ADSS (Mus musculus, UniProt P46664).
T1 construct: endogenous in cells; host or cells: primary mouse neurons, DIV21 (WT in A3; WT and Kctd13Δ47 in A4)
The assay is described as follows: Dose-response of IMP levels in cell lysates of DIV21 neurons from WT mice. In kind it is cell-based. To be noted: FIG. 20. Here is the method:
FIGS. 20A-B show IMP levels in cell lysates of DIV21 neurons from WT mice following treatment with D, L-alanosine or L-alanosine, or untreated (U).
16p11.2 deletion patient fibroblast samples were acquired from the Simons Foundation VIP collection. For comparison, fibroblasts from unaffected individuals were obtained from Mclean Hospital collection of primary fibroblasts (Cohen, Ongur, McPhee). Fibroblasts were grown in DMEM supplemented with 10% serum (Gibco). For metabolic experiments, 160,000 cells/well were plated in DMEM (Gibco) supplemented with 10% fetal bovine serum (Gibco) in 12 well plates. […]
Next, metabolic changes were determined between 16p11.2 deletion patient fibroblasts compared with control fibroblasts. […]
(§1) Raw data were processed using MultiQuant 1.2 software (AB SCIEX) for automated LC-MS peak integration. […] Internal standard peak areas were monitored for quality control, to assess system performance over time, and to identify any outlier samples requiring re-analysis. A pooled plasma reference sample was also analyzed after sets of 20 study samples as an additional quality control measure of analytical performance and to serve as reference for scaling raw LC-MS peak areas across sample batches. […]
Next, purine metabolites were assessed in cell lysates and supernatants of cultured neurons from wild-type and kctd13Δ47 mice. […]

Assay [2] addresses T2, ADSS (Homo sapiens, UniProt P30520).
T2 construct: fibroblasts from unaffected individuals were obtained from Mclean Hospital collection of primary fibroblasts; endogenous in cells; host or cells: primary human control fibroblasts (McLean Hospital collection)
Briefly: LC-MS purine metabolite levels in human control fibroblast cell lysates after ADSS inhibition. In kind it is cell-based. To be noted: human control fibroblasts, 12 hours, 10 mg/mL, FIG. 19. Here is the method: (§2) 16p11.2 deletion patient fibroblast samples were acquired from the Simons Foundation VIP collection. For comparison, fibroblasts from unaffected individuals were obtained from Mclean Hospital collection of primary fibroblasts (Cohen, Ongur, McPhee). Fibroblasts were grown in DMEM supplemented with 10% serum (Gibco). For metabolic experiments, 160,000 cells/well were plated in DMEM (Gibco) supplemented with 10% fetal bovine serum (Gibco) in 12 well plates. For neurons, 1 million primary mouse neurons/well were plated in 6 well plates and were extracted similar to fibroblasts as described below except volumes were doubled to accommodate the extra surface area.
Next, metabolic changes were determined between 16p11.2 deletion patient fibroblasts compared with control fibroblasts. For metabolite extraction, samples were collected from either cells or the cell media. Cell samples were extracted from cells grown in 12 well plates. Cell samples were extracted by washing cells once with 1 mL ice-cold PBS, transferring to dry ice, followed by adding 400 μL of 80% methanol (VWR) containing the internal standards inosine-^15N4, thymine-d4, and glycocholate-d4 (Cambridge Isotope Laboratories). Cells were then incubated for 15 minutes at −80° C., followed by scraping and transfer of the methanol and cells to a 1.5 mL tube. Cells were centrifuged (10 min, 9,000 g, 4° C.), and the supernatant was transferred to a new 1.5 mL tube. The pellet was extracted again with 50 μL of 80% methanol containing internal standards and centrifuged. The supernatant was then pooled with the previously collected methanol sample. Media supernatant samples (30 μL) were extracted using 120 μL of 80% methanol (VWR) containing the internal standards inosine-^15N4, thymine-d4, and glycocholate-d4 (Cambridge Isotope Laboratories). The samples were centrifuged (10 min, 9,000 g, 4° C.). The resulting supernatant was transferred to a new tube. Samples were stored at −80° C. until analysis.
A method using basic hydrophilic interaction chromatography (HILIC) separation and negative ionization mode MS detection was established on an LC-MS system consisting of an ACQUITY UPLC (Waters Inc.) coupled to a 5500 QTRAP triple quadrupole mass spectrometer (AB SCIEX). […]
as §1

The target of assay [3] is T1, ADSS. Briefly: S-Ado levels in cultured neurons from kctd13Δ47 mice contacted with L-alanosine. In kind it is cell-based. To be noted: increasing concentrations (0, 0.01, 0.1 μM), FIG. 22. The protocol: as §2
Next, metabolic changes were determined between 16p11.2 deletion patient fibroblasts compared with control fibroblasts. For metabolite extraction, samples were collected from either cells or the cell media. […]
as §1

Assay [4] concerns ADSS. The assay is described as follows: Western blot of ADSS protein levels in neurons after proteasome or Cullin inhibition. In kind it is cell-based, mouse. To be noted: neurons from Kctd13Δ47 mice, treated 5 hours with 2 μM, FIG. 5. The text has this:
Protein lysates were generated from mouse neurons prepared from wildtype or Kctd13Δ47 mice. C57B6 timed pregnant females were euthanized following IACUC approved method. E18 embryos were collected and rapidly decapitated. Embryos were then washed in dissection media (Hibernate-E (Hib-E, Gibco) supplemented with 100 U/mL penicillin streptomycin (Pen/Strep, Gibco)). Brains were isolated, cortices were separated from the midbrain and meninges was removed from each cortex. Each cortex was cut into six pieces; five cortices were pooled for dissociation. To dissociate 5 cortices, one Papain kit (Worthington LK3176) was reconstituted in 5 mLs Hib-E and activated at 37° C. for 10 minutes. Following activation, DNAse I (Sigma) was added to a concentration of 10 μg/mL and filter sterilized using a 0.22 μm filter. Cortices were washed twice with 5 mLs of Hib-E and 5 mLs of activated papain/DNAseI was added to the cortices and incubated for 8 minutes at 37° C. Following digestion, cortices were washed three times with 10 ml Hib-E per wash. Cortices were then triturated 10-15 times with a P1000 pipette in 1 mL NBActive4 supplemented with 10 μg/mL DNAseI filter sterilized using a 0.22 μm filter. […] Cells were counted in a hemocytometer, diluted and plated at 1 million cells/well in a 6 well poly-D-lysine (Corning, Biocoat) or 6 million cells/10 cm poly-D-lysine plate (Corning, Biocoat). […]

Molecules are shown by their SMILES.

T2 sequence (P30520 whole entry): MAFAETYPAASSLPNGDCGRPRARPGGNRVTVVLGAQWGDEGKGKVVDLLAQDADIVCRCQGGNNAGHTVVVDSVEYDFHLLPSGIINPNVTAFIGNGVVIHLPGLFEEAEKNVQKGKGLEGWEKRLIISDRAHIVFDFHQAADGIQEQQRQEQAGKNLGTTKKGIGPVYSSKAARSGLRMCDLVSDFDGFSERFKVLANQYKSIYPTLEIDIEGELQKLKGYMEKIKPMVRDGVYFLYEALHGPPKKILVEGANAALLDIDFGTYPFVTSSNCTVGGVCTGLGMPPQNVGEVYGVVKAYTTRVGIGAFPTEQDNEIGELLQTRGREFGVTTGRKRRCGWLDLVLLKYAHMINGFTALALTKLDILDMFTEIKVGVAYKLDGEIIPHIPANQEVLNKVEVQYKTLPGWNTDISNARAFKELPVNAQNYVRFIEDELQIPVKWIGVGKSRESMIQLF
T1 sequence (P46664 whole entry): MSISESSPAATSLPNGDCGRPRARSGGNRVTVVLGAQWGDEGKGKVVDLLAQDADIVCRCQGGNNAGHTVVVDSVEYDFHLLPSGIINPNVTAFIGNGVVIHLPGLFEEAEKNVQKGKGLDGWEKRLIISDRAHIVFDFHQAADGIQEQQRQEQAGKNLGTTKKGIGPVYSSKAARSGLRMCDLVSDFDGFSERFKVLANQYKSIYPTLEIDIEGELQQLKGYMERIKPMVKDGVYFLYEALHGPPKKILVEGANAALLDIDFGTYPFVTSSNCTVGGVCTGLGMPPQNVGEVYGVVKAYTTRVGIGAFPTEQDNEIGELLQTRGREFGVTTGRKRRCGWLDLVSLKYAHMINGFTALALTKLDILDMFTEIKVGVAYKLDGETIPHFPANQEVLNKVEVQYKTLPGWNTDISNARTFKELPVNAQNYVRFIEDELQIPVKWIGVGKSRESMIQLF

Turning to `NC(CN(O)N=O)C(=O)O` (racemic) [D,L-alanosine, 3-(Hydroxynitrosoamino)-D,L-alanine], the IMP levels entry at ADSS [1] is on record as “dose-dependent increase”.

On to `N[C@@H](CN(O)N=O)C(=O)O` [L-alanosine, L-2-amino-3-(N-hydroxy-N-nitrosamino) propionic acid], for which the IMP levels result at ADSS [1] was “dose-dependent increase”. Besides, at ADSS [2], the “levels of ADP” value is “decreased”, the “levels of AMP” value is reported as “decreased” and the “levels of IMP” value is recorded as “increased”. The “levels of aminoimidazole carboxamide ribotide (AICAR)” value at ADSS [2] (metabolite upstream of ADSS) is reported as “not affected”. Besides, on ADSS [3], the S-Ado levels result is on record as “decreased”.

Take `NS(=O)(=O)OC[C@@H]1C[C@@H](n2ccc3c(N[C@H]4CCc5ccccc54)ncnc32)C[C@@H]1O` [MLN4924]: in the assay on ADSS [4], the “change in ADSS levels” value is given as “no change”.

Take `CC(C)C[C@H](NC(=O)[C@H](Cc1ccccc1)NC(=O)c1cnccn1)B(O)O` [bortezomib]: in the assay on ADSS [4], the “change in ADSS levels” value is given as “no change”.
